Measured values published in ChEMBL document CHEMBL1157989, “Novel antioxidant compounds from tart cherries (Prunus cerasus)” (J Nat Prod, 1999).
Calls of active or inactive are those of the source. The rule behind the calls is not given here.

Test: Antioxidant activity against Fe2+-induced lipid peroxidation at 20 uM by fluorescence spectroscopy
Assay type: functional
Work on O=C(/C=C/c1ccc(O)c(O)c1)O[C@@H]1CC[C@@H](O)[C@H]1O yielded an Activity of 80%.
For Cc1cc(C(C)(C)C)c(O)c(C(C)(C)C)c1, the Activity was over 90%.
Compound COC(=O)[C@]1(O)C[C@@H](O)[C@@H](O)[C@H](OC(=O)/C=C/c2ccc(O)c(O)c2)C1 has an Activity of 50%.
O=C(/C=C/c1ccc(O)c(O)c1)OC1[C@H](O)CC[C@@H]1O (stereo partly specified) gave an Activity of 80%.
With CC(C)(C)c1cc(O)ccc1O the Activity was over 90%.

Test: Antioxidant activity against Fe2+-induced lipid peroxidation at 100 uM by fluorescence spectroscopy
Assay type: functional
In the case of O=C(O)C(O)Cc1ccccc1O (racemic), the Activity was “inactive”.
